In one experiment the test system is RAW264.7 macrophages. Kind of experiment: Cell viability of RAW264.7 macrophages (WST-1 reagent). Format: cell-based, mouse. The note with it: read-out: RAW264.7 (20 ng/ml IFNγ) WST-1 IC50. How it is done: (§1) FIGS. 1-4, 6 and 8. Inhibition of NO Production. RAW264.7 macrophages were pre-treated with DMSO or drugs at various concentrations (nM) for 2 hours, then treated with 20 ng/ml IFNγ for 24 hours. NO concentration in media was determined using a Griess reagent system; cell viability was determined using WST-1 reagent.
(§2) Nitric Oxide production and cell viability. RAW264.7 macrophages were pre-treated with DMSO or drugs for 2 hours, then treated with recombinant mouse IFNγ (Sigma) for 24 hours. NO concentration in media was determined using the Griess reagent system (Promega). Cell viability was determined using WST-1 reagent (Roche).
For orientation: Tetrazolium assays rely on reduction of a dye to a coloured formazan, in cell work by metabolically active cells.

Experiment [1] relates to NO production in RAW264.7 macrophages. Kind of experiment: Inhibition of NO production in IFNγ-treated RAW264.7 macrophages (Griess reagent). It is filed as cell-based, mouse. The note with it: then 20 ng/ml IFNγ for 24 hours. Here is the method:
as §1, §2
A general note: Griess reagent forms a coloured azo dye with nitrite.

[2] abbreviates: Mus musculus, RAW264.7, 24 h, cell viability, RAW264.7, 20 ng/ml IFNγ 24 hours, WST-1 reagent.
The mark [3] stands for this setting: Mus musculus, RAW264.7, RAW264.7 macrophages pre-treated 2 hours.
Where [4] appears, read: cell viability, RAW264.7, 20 ng/ml IFNγ 24 hours, WST-1 reagent.
Where [5] appears, read: RAW264.7 macrophages pre-treated 2 hours.

Molecules are shown by their SMILES. Where two headings read alike, the source gives them in different places.

Regarding `CC1(C)CC[C@]2(COP(=O)(O)O)CC[C@]3(C)[C@H](C(=O)C[C@@H]4[C@@]5(C)C=C(C#N)C(=O)C(C)(C)[C@@H]5CC[C@]43C)[C@@H]2C1` [Compound 63269, ((4aS,6aR,6bR,8aR,12aR,12bR,14aR,14bS)-11-cyano-2,2,6a,6b,9,9,12a-heptamethyl-10,14-dioxo-1,2,3,4,4a,5,6,6a,6b,7,8,8a,9,10,12a,12b,13,14,14a,14b-icosahydropicen-4a-yl)methyl dihydrogen phosphate], the IC50 (with RAW264.7 macrophages (setting [2]); in experiment [1] (setting [3])) was more than 200 nM throughout.
As for `CC1(C)CC[C@]2(CSc3ccccc3)CC[C@]3(C)[C@H](C(=O)C[C@@H]4[C@@]5(C)C=C(C#N)C(=O)C(C)(C)[C@@H]5CC[C@]43C)[C@@H]2C1` [Compound 63235, (4aR,6aR,6bR,8aS,12aS,12bR,14aR,14bR)-4,4,6a,6b,11,11,14b-heptamethyl-3,13-dioxo-8a-(phenylthiomethyl)-3,4,4a,5,6,6a,6b,7,8,8a,9,10,11,12,12a,12b,13,14,14a,14b-icosahydropicene-2-carbonitrile], the values for the IC50 (in the experiment on RAW264.7 macrophages (setting [2]); in experiment [1] (setting [3])) were approximately 150 nM and approximately 80 nM, respectively.
For `CC1(C)CC[C@]2(C[S+]([O-])c3ccccc3)CC[C@]3(C)[C@H](C(=O)C[C@@H]4[C@@]5(C)C=C(C#N)C(=O)C(C)(C)[C@@H]5CC[C@]43C)[C@@H]2C1` (stereo partly drawn) [Compound 63288, (4aR,6aR,6bR,8aS,12aS,12bR,14aR,14bR)-4,4,6a,6b,11,11,14b-heptamethyl-3,13-dioxo-8a-(phenylsulfinylmethyl)-3,4,4a,5,6,6a,6b,7,8,8a,9,10,11,12,12a,12b,13,14,14a,14b-icosahydropicene-2-carbonitrile], the IC50 in the experiment on RAW264.7 macrophages (setting [4]) was approximately 200 nM; in experiment [1] (setting [5]) it was approximately 25 nM.
As for `C=C[C@]12CCC(C)(C)C[C@H]1[C@H]1C(=O)CC3[C@@]4(C)C=C(C#N)C(=O)C(C)(C)C4CC[C@@]3(C)[C@]1(C)CC2` (stereo partly drawn) [Compound 63213, (6aR,6bR,8aR,12aS,12bR,14bR)-4,4,6a,6b,11,11,14b-heptamethyl-3,13-dioxo-8a-vinyl-3,4,4a,5,6,6a,6b,7,8,8a,9,10,11,12,12a,12b,13,14,14a,14b-icosahydropicene-2-carbonitrile], the figures for the IC50 (with RAW264.7 macrophages (setting [2]); in experiment [1] (setting [3])) were approximately 200 nM and approximately 40 nM, respectively.
Turning to `CC1(C)CC[C@]2(CNCC(F)(F)F)CC[C@]3(C)[C@H](C(=O)C[C@@H]4[C@@]5(C)C=C(C#N)C(=O)C(C)(C)[C@@H]5CC[C@]43C)[C@@H]2C1` [Compound 63273, (4aR,6aR,6bR,8aS,12aS,12bR,14aR,14bR)-4,4,6a,6b,11,11,14b-heptamethyl-3,13-dioxo-8a-((2,2,2-trifluoroethylamino)methyl)-3,4,4a,5,6,6a,6b,7,8,8a,9,10,11,12,12a,12b,13,14,14a,14b-icosahydropicene-2-carbonitrile], the IC50 in the experiment with RAW264.7 macrophages (setting [2]) was approximately 200 nM; in experiment [1] (setting [3]) it was approximately 80 nM.
Turning to `CC1(C)CC[C@]2([C@@H](O)CCl)CC[C@]3(C)[C@H](C(=O)C[C@@H]4[C@@]5(C)C=C(C#N)C(=O)C(C)(C)[C@@H]5CC[C@]43C)[C@@H]2C1` (single isomer, unassigned) [Compound 63282], the IC50 was more than 200 nM in the experiment with RAW264.7 macrophages (setting [2]) and approximately 25 nM in experiment [1] (setting [3]).
For `CC1(C)CC[C@]2(CC(=O)O)CC[C@]3(C)[C@H](C(=O)C=C4[C@@]5(C)C=C(C#N)C(=O)C(C)(C)[C@@H]5CC[C@]43C)[C@@H]2C1` [Compound 402-54, 2-((4aR,6aR,6bS,8aR,12aS,14aR,14bS)-11-cyano-2,2,6a,6b,9,9,12a-heptamethyl-10,14-dioxo-1,2,3,4,4a,5,6,6a,6b,7,8,8a,9,10,12a,14,14a,14b-octadecahydropicen-4a-yl)acetic acid], the IC50 with RAW264.7 macrophages (setting [2]) was more than 200 nM; in experiment [1] (setting [3]), approximately 6 nM.
The like results for `CC1(C)CC[C@]2(CO)CC[C@]3(C)[C@H](C(=O)CC4[C@@]5(C)C=C(C#N)C(=O)C(C)(C)[C@@H]5CC[C@]43C)[C@@H]2C1` (stereo partly drawn) [Compound 402-63, (4aR,6aR,6bR,8aS,12aS,12bR,14bR)-8a-(hydroxymethyl)-4,4,6a,6b,11,11,14b-heptamethyl-3,13-dioxo-3,4,4a,5,6,6a,6b,7,8,8a,9,10,11,12,12a,12b,13,14,14a,14b-icosahydropicene-2-carbonitrile] were, in that order, more than 200 nM and approximately 9 nM.
As for `CC1(C)CC[C@]2(COC(=O)C(F)(F)F)CC[C@]3(C)[C@H](C(=O)C[C@@H]4[C@@]5(C)C=C(C#N)C(=O)C(C)(C)[C@@H]5CC[C@]43C)[C@@H]2C1` [Compound 63294, ((4aS,6aR,6bR,8aR,12aR,12bR,14aR,14bS)-11-cyano-2,2,6a,6b,9,9,12a-heptamethyl-10,14-dioxo-1,2,3,4,4a,5,6,6a,6b,7,8,8a,9,10,12a,12b,13,14,14a,14b-icosahydropicen-4a-yl)methyl 2,2,2-trifluoroacetate], the IC50 was more than 200 nM in the experiment with RAW264.7 macrophages (setting [2]) and approximately 9 nM in experiment [1] (setting [3]).
In the case of `COC(=O)C[C@]12CCC(C)(C)C[C@H]1[C@H]1C(=O)C=C3[C@@]4(C)C=C(C#N)C(=O)C(C)(C)[C@@H]4CC[C@@]3(C)[C@]1(C)CC2` [Compound 402-50, methyl-2-((4aR,6aR,6bS,8aR,12aS,14aR,14bS)-11-cyano-2,2,6a,6b,9,9,12a-heptamethyl-10,14-dioxo-1,2,3,4,4a,5,6,6a,6b,7,8,8a,9,10,12a,14,14a,14b-octadecahydropicen-4a-yl)acetate], the IC50 in the experiment on RAW264.7 macrophages (setting [2]) was 75 nM; in experiment [1] (setting [3]) it was approximately 2.5 nM.
Consider `Cn1nnc(CNC[C@]23CCC(C)(C)C[C@H]2[C@H]2C(=O)C[C@@H]4[C@@]5(C)C=C(C#N)C(=O)C(C)(C)[C@@H]5CC[C@@]4(C)[C@]2(C)CC3)n1` [Compound 63233, (4aR,6aR,6bR,8aS,12aS,12bR,14aR,14bR)-4,4,6a,6b,11,11,14b-heptamethyl-8a-(((2-methyl-2H-tetrazol-5-yl)methylamino)methyl)-3,13-dioxo-3,4,4a,5,6,6a,6b,7,8,8a,9,10,11,12,12a,12b,13,14,14a,14b-icosahydropicene-2-carbonitrile], for which, in the experiment with RAW264.7 macrophages (Mus musculus, RAW264.7, 24 h), the IC50 was more than 200 nM.
Consider `CC1(C)CC[C@]2(COC(=O)c3ccccc3)CC[C@]3(C)[C@H](C(=O)C[C@@H]4[C@@]5(C)C=C(C#N)C(=O)C(C)(C)[C@@H]5CC[C@]43C)[C@@H]2C1` [Compound 63298, ((4aS,6aR,6bR,8aR,12aR,12bR,14aR,14bS)-11-cyano-2,2,6a,6b,9,9,12a-heptamethyl-10,14-dioxo-1,2,3,4,4a,5,6,6a,6b,7,8,8a,9,10,12a,12b,13,14,14a,14b-icosahydropicen-4a-yl)methyl benzoate], for which the IC50 was approximately 200 nM in the experiment with RAW264.7 macrophages (setting [2]) and approximately 80 nM in experiment [1] (setting [3]).
Consider `CC(=O)OC[C@]12CCC(C)(C)C(C#N)[C@H]1[C@H]1C(=O)CC3[C@@]4(C)C=CC(=O)C(C)(C)[C@@H]4CC[C@@]3(C)[C@]1(C)CC2` (stereo partly drawn) [Compound 402-65, ((4aS,6aR,6bR,8aR,12aR,14aR,14bS)-1-cyano-2,2,6a,6b,9,9,12a-heptamethyl-10,14-dioxo-1,2,3,4,4a,5,6,6a,6b,7,8,8a,9,10,12a,12b,13,14,14a,14b-icosahydropicen-4a-yl)methyl acetate], for which the IC50 is more than 200 nM in the experiment on RAW264.7 macrophages (setting [2]) and approximately 12.5 nM in experiment [1] (setting [3]).
Turning to `CC1(C)CC[C@]2(CC(=O)O)CC[C@]3(C)[C@H](C(=O)C[C@@H]4[C@@]5(C)C=C(C#N)C(=O)C(C)(C)[C@@H]5CC[C@]43C)[C@@H]2C1` [Compound 63332, 2-((4aR,6aR,6bR,8aR,12aR,12bR,14aR,14bS)-11-cyano-2,2,6a,6b,9,9,12a-heptamethyl-10,14-dioxo-1,2,3,4,4a,5,6,6a,6b,7,8,8a,9,10,12a,12b,13,14,14a,14b-icosahydropicen-4a-yl)acetic acid], the IC50 in experiment [1] (setting [3]) is approximately 50 nM.
Turning to `CC1(C)CC[C@]2(C(O)CBr)CC[C@]3(C)[C@H](C(=O)C[C@@H]4[C@@]5(C)C=C(C#N)C(=O)C(C)(C)[C@@H]5CC[C@]43C)[C@@H]2C1` (single isomer, unassigned) [Compound 63283], the IC50 is approximately 200 nM in the experiment on RAW264.7 macrophages (setting [4]) and approximately 20 nM in experiment [1] (setting [5]).
For the compound `CC1(C)CC[C@]2(CN3C(=O)c4ccccc4C3=O)CC[C@]3(C)[C@H](C(=O)C[C@@H]4[C@@]5(C)C=C(C#N)C(=O)C(C)(C)[C@@H]5CC[C@]43C)[C@@H]2C1` [Compound 63276, (4aR,6aR,6bR,8aS,12aS,12bR,14aR,14bR)-8a-((1,3-dioxoisoindolin-2-yl)methyl)-4,4,6a,6b,11,11,14b-heptamethyl-3,13-dioxo-3,4,4a,5,6,6a,6b,7,8,8a,9,10,11,12,12a,12b,13,14,14a,14b-icosahydropicene-2-carbonitrile], the figures for the IC50 (in the experiment on RAW264.7 macrophages (setting [2]); in experiment [1] (setting [3])) were approximately 150 nM and approximately 50 nM, respectively.
Turning to `CCOP(=O)(OCC)OC[C@]12CCC(C)(C)C[C@H]1[C@H]1C(=O)C[C@@H]3[C@@]4(C)C=C(C#N)C(=O)C(C)(C)[C@@H]4CC[C@@]3(C)[C@]1(C)CC2` [Compound 63239, ((4aS,6aR,6bR,8aR,12aR,12bR,14aR,14bS)-11-cyano-2,2,6a,6b,9,9,12a-heptamethyl-10,14-dioxo-1,2,3,4,4a,5,6,6a,6b,7,8,8a,9,10,12a,12b,13,14,14a,14b-icosahydropicen-4a-yl)methyl diethyl phosphate], the IC50 in the experiment on RAW264.7 macrophages (Mus musculus, RAW264.7, 24 h) was more than 200 nM.

These data come from US8394967B2, “Antioxidant inflammation modulators: C-17 homologated oleanolic acid derivatives” (Reata Pharmaceuticals, Inc., priority 2008, dated 2013).
